In patent publication US20200188471A1 (GUILIN EIGHT PLUS ONE PHARMACEUTICAL CO., LTD., priority 2017, published 2020):
Read-outs that look alike come from different tables or passages of the source. No end group written: not given here.

Experiments:
TNF-α [1] = molecular target: T1, TNF-α (Homo sapiens, UniProt P01375); assay: BIAcore (SPR) interaction with TNF-α; type: binding
[2] = molecular target: T2, interaction of TNFR1 with TNF-α (Homo sapiens, UniProt P19438); assay: BIAcore (SPR) competitive inhibition between TNF-α and TNFR1; type: binding
T2 sequence (P19438 30-211 limits assumed): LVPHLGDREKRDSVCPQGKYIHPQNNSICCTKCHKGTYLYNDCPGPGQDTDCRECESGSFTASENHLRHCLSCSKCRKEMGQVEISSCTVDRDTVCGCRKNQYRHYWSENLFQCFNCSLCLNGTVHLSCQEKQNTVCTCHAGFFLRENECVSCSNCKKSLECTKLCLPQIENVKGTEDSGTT

TNF-α [3] = molecular target: T1, TNF-α; assay: MST interaction with TNF-α; type: binding; conditions: fluorescently labeled TNF-α
TNFR2 [4] = molecular target: T3, TNFR2 (Homo sapiens, UniProt P20333); assay: MST interaction with TNFR2; type: binding
T3 sequence (P20333 23-461): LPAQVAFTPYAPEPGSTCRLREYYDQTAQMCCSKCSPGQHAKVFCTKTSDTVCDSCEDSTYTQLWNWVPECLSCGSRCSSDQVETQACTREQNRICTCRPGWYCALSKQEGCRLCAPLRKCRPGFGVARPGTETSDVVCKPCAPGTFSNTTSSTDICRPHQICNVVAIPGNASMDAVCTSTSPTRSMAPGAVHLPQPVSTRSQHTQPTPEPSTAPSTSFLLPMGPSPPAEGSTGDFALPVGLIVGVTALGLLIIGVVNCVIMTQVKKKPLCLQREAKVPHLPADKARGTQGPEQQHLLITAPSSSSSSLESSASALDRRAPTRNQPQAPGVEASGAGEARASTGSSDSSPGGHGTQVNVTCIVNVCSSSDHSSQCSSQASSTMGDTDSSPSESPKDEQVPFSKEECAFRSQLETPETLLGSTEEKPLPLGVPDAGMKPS

[5] = molecular target: T4, interaction of TNFR1 and TNF-α (Homo sapiens, UniProt P19438); assay: MST competitive inhibition between TNF-α and TNFR1; type: binding
T4 sequence (P19438 30-211 limits assumed): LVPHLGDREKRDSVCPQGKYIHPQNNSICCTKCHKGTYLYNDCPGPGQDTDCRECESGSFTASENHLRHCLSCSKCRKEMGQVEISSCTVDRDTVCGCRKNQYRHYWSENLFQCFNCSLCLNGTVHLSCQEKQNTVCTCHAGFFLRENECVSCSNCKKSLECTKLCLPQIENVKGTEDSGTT
Source text: Calculate the KD value by software. The changes of TNF-α saturation concentration, response amplitude and KD value before and after Hydrostatin-SN10 were compared.

CIA mice [6] = assay: Arthritis index in type II bovine collagen-induced arthritis (CIA) mice; type: in vivo, DBA/1 mice; conditions: i.p. 1600 ug/kg once a day for 18 days, vs model group
Description: (§1) After 3 days of adaptation, DBA/1 mice were weighed and began to model. Six were randomly selected as the normal group, and the rest were the experimental group.
(§2) Day 0: Take bovine type IT collagen (4 mg/ml) and vortex and mix with an equal volume of CFA (4 mg/ml). It is better to not disperse on the water, and 100 ul/head is injected intradermally into the tail of the mouse.
(§3) Day 21: Take bovine type II collagen (4 mg/ml) and vortex mixed with an equal volume of IFA (4 mg/ml) until the droplets are not dispersed on the water. The mice are injected intradermally with 100 ul/head. On the 30th day, the model was successfully established. […] The drug was administered by injection once a day for 18 days.
(§4) One-Way ANOVA statistical analysis of the data using Graphpad Prism 5 was considered statistically significant at P<0.05. “*” indicates P<0.05, “**” indicates P<0.01, and “***” indicates P<0.001.

CIA mice [7] = assay: Collagen-specific antibody and inflammatory factors in serum of CIA mice (ELISA, multi-factor kit); type: in vivo, DBA/1 mice; conditions: 1600 ug/kg i.p., vs model group
Description: as §1, §2, §3, §4
The ELISA kit and multi-factor kit were used to determine the collagen-specific antibody Ig G and pro-inflammatory factors IL-17, TNF-α, IL-6, IFN-γ and anti-inflammatory factor IL-10 in the serum of each group of mice. Compared with the normal control group, the collagen-specific antibody Ig G and the pro-inflammatory factors IL-17, TNF-α, IL-6, IFN-γ in the serum of the model group mice.

CIA mice [8] = assay: Micro-CT detection of bone destruction in CIA mice; type: in vivo, DBA/1 mice; conditions: for trabecular bone damage: Micro-CT of trabecular bone; for trabecular bone damage / degree of bone destruction, hind limbs: CIA mice; for trabecular bone damage / bone area/tissue volume (BS/TV) / bone mineral density (BMD) / bone surface area/bone volume (BS/BV) / bone volume/tissue volume (BV/TV) / number of trabeculae (Th.N) / trabecular model factor (Tb.pf) / trabecular separation (Tb.sp) / trabecular thickness (Tb.Th): vs model group; for degree of bone destruction, hind limbs / bone area/tissue volume (BS/TV) / bone mineral density (BMD) / bone surface area/bone volume (BS/BV) / bone volume/tissue volume (BV/TV) / number of trabeculae (Th.N) / trabecular model factor (Tb.pf) / trabecular separation (Tb.sp) / trabecular thickness (Tb.Th): Micro-CT; for degree of bone destruction, hind limbs: peptides 1600 ug/kg, infliximab 4 mg/kg i.p.; for bone area/tissue volume (BS/TV) / bone mineral density (BMD) / bone surface area/bone volume (BS/BV) / bone volume/tissue volume (BV/TV) / number of trabeculae (Th.N) / trabecular model factor (Tb.pf) / trabecular separation (Tb.sp) / trabecular thickness (Tb.Th): trabecular bone
CIA mice [9] = assay: Joint histology of CIA mice (HE staining, TNF-α immunohistochemistry, TRAP staining); type: in vivo, DBA/1 mice; conditions: for osteoclasts in joints / tartrate-resistant phosphatase (TRAP) in joints: TRAP staining; for osteoclasts in joints / tartrate-resistant phosphatase (TRAP) in joints / amount of expression of TNF-α in the joints: vs model group; for amount of expression of TNF-α in the joints: immunohistochemistry
CIA mice [10] = assay: Treg (Foxp3) and Th1, Th2, Th17 expression in T cells/splenocytes of CIA mice; type: in vivo, DBA/1 mice; conditions: vs model group; for expression level of Foxp3 in Treg cells: CIA mice; for expression level of IFN-γ (Th1) / expression level of IL-17 (Th17) / expression of IL-4 (Th2): splenocytes of CIA mice
Description: as §1, §2, §3, §4
Studies have shown that Th17 cells secrete high levels of IL-17, which stimulates the secretion of matrix metalloproteinase-1, IL-1β by FLS. TNF-α and other co-inducing NF-κB receptor activator ligands are involved in the bone destruction of RA and inflammatory damage in tissues. The effect was observed by measuring the expression of helper T cells in splenocytes.

TNFR1 [11] = molecular target: T5, TNFR1 (Homo sapiens, UniProt P19438); conditions: read-out: binding capacity with TNFR1 (KD); SPR; from Hailong Jiang 2015 master dissertation of the inventors' group; cited from earlier work
T5 sequence (P19438 30-455): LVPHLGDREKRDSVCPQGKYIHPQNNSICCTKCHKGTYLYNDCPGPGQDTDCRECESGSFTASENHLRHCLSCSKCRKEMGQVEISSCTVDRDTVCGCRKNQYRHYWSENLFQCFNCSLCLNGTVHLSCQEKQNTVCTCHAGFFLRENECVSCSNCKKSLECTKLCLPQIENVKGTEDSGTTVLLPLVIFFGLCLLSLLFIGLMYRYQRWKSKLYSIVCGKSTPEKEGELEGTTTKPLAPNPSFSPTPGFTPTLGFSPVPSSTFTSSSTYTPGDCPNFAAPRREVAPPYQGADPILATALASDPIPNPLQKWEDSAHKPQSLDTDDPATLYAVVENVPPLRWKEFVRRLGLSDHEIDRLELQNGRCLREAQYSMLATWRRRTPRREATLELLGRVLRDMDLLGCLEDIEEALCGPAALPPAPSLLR

TNFR1 [12] = assay: MST, fluorescently labelled TNFR1, TNF-α titrated, no SN10
TNFR2 [13] = assay: MST, fluorescently labelled TNFR2, TNF-α titrated, no SN10
TNFR2 [14] = assay: MST, fluorescently labelled TNFR2, TNF-α titrated in the presence of 100 µM SN10; apparent KD
TNF-α [15] = assay: MST, fluorescently labelled TNF-α, TNFR1 titrated, no SN10
TNFR1 [16] = molecular target: TNFR1
TNFR1 [17] = molecular target: TNFR1; remark: listed apart in the source
TNFR1 [18] = assay: BIAcore SPR, TNFR1 coated on CM-5 chip, peptide injected
TNFR1 [19] = assay: MST, fluorescently labelled TNFR1 with an SN10 dilution series

## H-DEQHLETELH [Hydrostatin-SN10]
TNF-α [1]
  binding to TNF-α: does not bind
TNF-α [1]; listed as SN10
  binding to TNF-α: no binding
[2]
  competitive inhibition of the interaction of TNFR1 with TNF-α: competitively inhibits
TNF-α [3]
  binding to TNF-α: not binding
TNF-α [3]; listed as SN10
  binding to TNF-α: no binding
TNFR2 [4]; fluorescently labeled TNFR2
  binding to TNFR2: not binding
TNFR2 [4]; fluorescently labeled TNFR2, listed as SN10
  binding to TNFR2: no binding
[5]
  competitive inhibition of the interaction of TNFR1 and TNF-α: competitively inhibit
CIA mice [6]
  arthritis index: reduced
CIA mice [7]
  content of IFN-γ in serum: significantly reduced
  content of IL-6 in serum: significantly reduced
  content of IL-17 in serum: significantly reduced
  content of TNF-α in serum: significantly reduced
  content of anti-inflammatory factor IL10 in serum: Significantly increased
  content of collagen-specific antibody Ig G in serum: significantly reduced
CIA mice [8]
  trabecular bone damage: significantly reduced bone damage
  degree of bone destruction, hind limbs: significantly reduced the degree of bone destruction
  bone area/tissue volume (BS/TV): significantly up-regulated
  bone mineral density (BMD): significantly up-regulated
  bone surface area/bone volume (BS/BV): significant down
  bone volume/tissue volume (BV/TV): significantly up-regulated
  number of trabeculae (Th.N): significantly up-regulated
  trabecular model factor (Tb.pf): significant down
  trabecular separation (Tb.sp): significant down
  trabecular thickness (Tb.Th): significantly up-regulated
CIA mice [9]; HE staining of joint
  inflammatory cell infiltration: more severe inflammatory cell infiltration
  joint structure: intact joint structure
  synovial hyperplasia: severe synovial hyperplasia
CIA mice [9]
  osteoclasts in joints: reduced osteoclasts
  tartrate-resistant phosphatase (TRAP) in joints: reduced
  amount of expression of TNF-α in the joints: reduced
CIA mice [10]
  expression level of Foxp3 in Treg cells: significantly increased
  expression level of IFN-γ (Th1): significantly down-regulated
  expression level of IL-17 (Th17): significantly down-regulated
  expression of IL-4 (Th2): up-regulated
TNFR1 [11]
  Kd: ~2.8 µM

## PEG-SN10: Hydrostatin-SN10 modified by mPEG2000, carboxyl of mPEG2000 connected to free amino group of N-terminal aspartic acid (mPEG2000-DEQHLETELH)
CIA mice [7]
  content of IFN-γ in serum: significantly reduced
  content of IL-6 in serum: significantly reduced
  content of IL-17 in serum: significantly reduced
  content of TNF-α in serum: significantly reduced
  content of anti-inflammatory factor IL10 in serum: Significantly increased
  content of collagen-specific antibody Ig G in serum: significantly reduced
CIA mice [8]
  trabecular bone damage: significantly reduced bone damage
  degree of bone destruction, hind limbs: significantly reduced the degree of bone destruction
  bone area/tissue volume (BS/TV): significantly up-regulated
  bone mineral density (BMD): significantly up-regulated
  bone surface area/bone volume (BS/BV): significant down
  bone volume/tissue volume (BV/TV): significantly up-regulated
  number of trabeculae (Th.N): significantly up-regulated
  trabecular model factor (Tb.pf): significant down
  trabecular separation (Tb.sp): significant down
  trabecular thickness (Tb.Th): significantly up-regulated
CIA mice [9]; HE staining of joint
  inflammatory cell infiltration: weak inflammatory cell infiltration
  joint damage: significantly weakened
  joint structure: complete joint structure
CIA mice [9]
  osteoclasts in joints: reduced osteoclasts
  tartrate-resistant phosphatase (TRAP) in joints: reduced
  amount of expression of TNF-α in the joints: reduced
CIA mice [10]
  expression level of Foxp3 in Treg cells: significantly increased
  expression level of IFN-γ (Th1): significantly down-regulated
  expression level of IL-17 (Th17): significantly down-regulated
  expression of IL-4 (Th2): up-regulated

## TNF-α (ligand)
TNFR1 [12]
  Kd: 0.116 µM
TNFR2 [13]
  Kd: 0.328 µM
TNFR2 [14]
  Kd: 0.384 µM

## TNFR1 (receptor)
TNF-α [15]
  Kd: 0.00284 µM

## infliximab: anti-TNF-α monoclonal antibody, positive drug [reference compound]
CIA mice [8]
  trabecular bone damage: significantly reduced bone damage
  degree of bone destruction, hind limbs: significantly reduced the degree of bone destruction
CIA mice [9]; HE staining of joint
  inflammatory cell infiltration: weak inflammatory cell infiltration
  joint damage: significantly weakened
  joint structure: complete joint structure
CIA mice [10]
  expression level of Foxp3 in Treg cells: significantly increased
  expression level of IFN-γ (Th1): significantly down-regulated
  expression level of IL-17 (Th17): significantly down-regulated
  expression of IL-4 (Th2): up-regulated

B1: selective TNFR1 antagonist peptide Hydrostatin-SN10 (peptide)
peptide: DEQHLETELH
modifications: not checked
TNFR1 [16]
  Kd: 2.77 µM
TNFR1 [17]
  Kd: 2.83 µM
TNFR1 [18]
  Kd: 2.8 µM
TNFR1 [19]
  Kd: 2.8 µM
